Laboratory results published in PubChem BioAssay (NCI).
Where “and” joins values, the source holds several entries; their conditions need not be identical. Identical values can stand only once.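 Following 48 hours of exposure in 96-well plates, responses at five concentrations were used to interpolate endpoints linearly. GI50: concentration for 50% inhibition of growth. TGI: total growth inhibition.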

These molecules were tested on OVCAR-5 ovarian (assay: NCI anticancer screen, dose series, 48 h).
`COc1ccc(/C(=C\C=C(C#N)C#N)Sc2nc3ccccc3s2)cc1` showed a GI50 of 7.65 µM and a TGI of 15.1 µM.
Work on `CC(C)(C)[Si](C)(C)OC1C(=O)C[C@H]2CCCC[C@@H]12` (stereo not given in full) yielded a TGI of over 100 µM.
Work on `CCN(CC)CCSc1c2ccccc2nc2c(OC)ccc(OC)c12` yielded a TGI of 48.2 µM.
In the case of `[N-]=[N+]=N/C1=C/CCCCC(=O)C1`, the TGI is reported as over 100 µM.
`CCc1c(Cl)c(C)cc(O)c1Cl` was tested, and the TGI was over 100 µM.
In the case of `C=COC(=O)N[C@H]1CCc2cc(OC)c(OC)c(OC)c2-c2ccc(SC)c(=O)cc21`, the TGI is reported as over 75 µM.
In the case of `Cc1ccc(NC(=O)CCc2nnc(N)o2)cc1`, the TGI is reported as over 100 µM.
`S=c1[nH]c2c(Cl)c(Cl)c(Cl)c(Cl)c2[nH]1` showed a TGI of 65 µM.
For `Cc1cc(N(CCCNc2ccnc3cc(Cl)ccc23)Cc2ccc3c(c2)OCO3)nc(N2CCOCC2)n1`, the GI50 was 0.29 µM and the TGI was 22.3 µM.
For `CCOC(=O)C1SC(=Nc2ccccc2)N=C1C` (stereo not given), the TGI was over 100 µM.
Molecule `O=C1CCC(=O)c2c1c(O)c1ccncc1c2O` has a TGI of 38.2 µM.
`C=CCN1CCC23c4c5ccc(O)c4OC2C(=NN=C2CCC4(O)C6Cc7ccc(O)c8c7C4(CCN6CC=C)C2O8)CCC3(O)C1C5` (stereo not given) was tested, and the TGI was over 100 µM.
In the case of `CN(C)CCNC(=O)c1cccc2c(Nc3ccc(S(=O)(=O)N=C(N)N)cc3)c3ccccc3nc12`, the TGI is reported as 90.4 µM.
`COC(=O)C1=C(C(=O)OC)C2=S(SC3=C2CCCC3)S1` (stereo not given) showed a TGI of 93.6 µM.
`COC(=O)c1ccc(-c2c(C#N)[n+](=O)c3cc(Cl)c(Cl)cc3n2[O-])cc1` gave a GI50 of 19.2 µM and a TGI of 39.4 µM.
Molecule `CC1(C)CC(=O)CC(=Nc2ccc([N+](=O)[O-])cc2)C1` has a TGI of over 100 µM.
For `C/C(=N\NC(=S)N1CCCCCC1)c1ccccn1`, the GI50 was under 0.0165 µM and the TGI was 2.67 µM and 3.98 µM.
`Oc1ccc2ccccc2c1N=Nc1ccc(Br)cc1` was tested, and the TGI was over 100 µM.
Work on `CC(C)=CCc1cc2c(cc1O)OC[C@H]1c3cc4c(cc3O[C@@H]21)OCO4` yielded a TGI of over 100 µM.
In the case of `COc1ccc(Cn2c(N)c(S(=O)(=O)c3ccc(Cl)cc3)c3nc(C#N)c(C#N)nc32)cc1`, the GI50 is reported as 12.2 µM and the TGI is reported as over 50 µM.

These molecules were tested on MCF7 breast (assay: NCI anticancer screen, dose series, 48 h).
`COc1ccc(-c2nsc3c2NC(=O)CC3c2cccc(OC)c2)cc1` (stereo not given) was tested, and the GI50 was 0.55 µM and the TGI was over 100 µM.
Work on `Cc1ccc2c(C3C(C#N)=C(N)Oc4cc5ccccc5cc43)cc(=O)oc2c1` (stereo not given) yielded a GI50 of 0.428 µM and a TGI of over 100 µM.
`COC(=O)c1cc2c(s1)-c1nccc3c1c(nc1ccccc13)C2=O` was tested, and the GI50 was 26.1 µM and the TGI was over 100 µM.
Molecule `O=C(Nc1cc(C(F)(F)F)ccc1Cl)c1cccc(NC2=C(Cl)C(=O)N(Cc3ccccc3)C2=O)c1` has a GI50 of 5.76 µM and a TGI of 85.6 µM.
`CCCCCCCN=C(N)c1ccc(N2CCN(c3ccc(C(N)=NCCCCCCC)cc3)CC2)cc1` was tested, and the GI50 was 0.208 µM.
With `O=[P@@]1(c2ccccc2)O[C@H](COCc2ccccc2)[C@@H](OCc2ccccc2)[C@H](OCc2ccccc2)[C@H]1NCc1ccccc1` the GI50 was 3.38 µM and the TGI was 70.4 µM.
`C[C@H]1CN[C@@H]2[C@@H](C)[C@H]3[C@@H](C[C@H]4[C@@H]5CC[C@H]6C[C@@H](N)CC[C@]6(C)[C@H]5CC[C@]34C)O[C@@]2(O)C1` gave a TGI of 26.3 µM.
`COc1ccc(/C(=C\C=C(C#N)C#N)Sc2nc3ccccc3s2)cc1` gave a GI50 of 2.26 µM and a TGI of 17.9 µM.
With `CCc1c(Cl)c(C)cc(O)c1Cl` the TGI was over 100 µM.
Work on `C=COC(=O)N[C@H]1CCc2cc(OC)c(OC)c(OC)c2-c2ccc(SC)c(=O)cc21` yielded a TGI of 59.8 µM.
`S=c1[nH]c2c(Cl)c(Cl)c(Cl)c(Cl)c2[nH]1` was tested, and the TGI was 40.5 µM.
`Cc1cc(N(CCCNc2ccnc3cc(Cl)ccc23)Cc2ccc3c(c2)OCO3)nc(N2CCOCC2)n1` was tested, and the GI50 was 0.286 µM and the TGI was 92 µM.
`COC(=O)c1ccc(-c2c(C#N)[n+](=O)c3cc(Cl)c(Cl)cc3n2[O-])cc1` showed a GI50 of 19.2 µM and a TGI of 42.1 µM.
In the case of `C/C(=N\NC(=S)N1CCCCCC1)c1ccccn1`, the TGI is reported as 0.0245 µM.
`CC(C)=CCc1cc2c(cc1O)OC[C@H]1c3cc4c(cc3O[C@@H]21)OCO4` showed a TGI of 58.7 µM.
`Cn1cc(-c2csc(-c3c[nH]c4ccc(Br)cc34)n2)c2cnccc21` showed a GI50 of 1.77 µM and a TGI of 3.71 µM.
`COc1ccc(Cn2c(N)c(S(=O)(=O)c3ccc(Cl)cc3)c3nc(C#N)c(C#N)nc32)cc1` showed a GI50 of 5.85 µM and a TGI of over 50 µM.

The molecules below were run on K-562 leukemia (assay: NCI anticancer screen, dose series, 48 h).
Molecule `COc1ccc(-c2nsc3c2NC(=O)CC3c2cccc(OC)c2)cc1` (stereo not given) has a GI50 of 0.358 µM and a TGI of over 100 µM.
For `Cn1cnnc1Sc1c([N+](=O)[O-])ncn1C`, the TGI was over 100 µM.
In the case of `C=CCC1(CN(C)C)CC/C(=C\c2ccc(Cl)cc2)C1=O` (stereo not given), the TGI is reported as 76.3 µM.
`Cc1ccc2c(C3C(C#N)=C(N)Oc4cc5ccccc5cc43)cc(=O)oc2c1` (stereo not given) gave a GI50 of 0.394 µM and a TGI of over 100 µM.
Molecule `COC(=O)c1cc2c(s1)-c1nccc3c1c(nc1ccccc13)C2=O` has a GI50 of over 100 µM and a TGI of over 100 µM.
Work on `C[Si](C)(C)/C(I)=C/CO` yielded a TGI of 41.4 µM.
For `C[N+](C)(C)CC1CCC/C1=N\OC(=O)c1ccccc1` (stereo not given), the TGI was over 100 µM.
Molecule `CC(=O)N1CCC(=O)/C(=C/c2ccccc2)C1` has a TGI of over 100 µM.
With `O=C(Nc1cc(C(F)(F)F)ccc1Cl)c1cccc(NC2=C(Cl)C(=O)N(Cc3ccccc3)C2=O)c1` the GI50 was 4.23 µM and the TGI was over 100 µM.
`CCCCCCCN=C(N)c1ccc(N2CCN(c3ccc(C(N)=NCCCCCCC)cc3)CC2)cc1` showed a GI50 of 0.147 µM and a TGI of over 9.41 µM.
`C[Si](C)(C)/C(Br)=C\CCN1C(=O)CCC1=O` showed a TGI of over 100 µM.
In the case of `Cc1ccc(S(=O)OCc2c(C)c(C)c(COS(=O)c3ccc(C)cc3)c(C)c2C)cc1` (stereo not given), the TGI is reported as over 100 µM.
For `C[C@]12CCC(=O)C=C1CC[C@@H]1C2CC[C@]2(C)Nc3[nH]ncc3CC12` (stereo not given in full), the TGI was over 100 µM.
`COc1ccc2c(c1)c[n+](C)c1c3cc(OC)c(OC)cc3ccc21` gave a TGI of 43.1 µM.
Work on `O=[P@@]1(c2ccccc2)O[C@H](COCc2ccccc2)[C@@H](OCc2ccccc2)[C@H](OCc2ccccc2)[C@H]1NCc1ccccc1` yielded a GI50 of 2.86 µM and a TGI of over 100 µM.
In the case of `C[C@H]1CN[C@@H]2[C@@H](C)[C@H]3[C@@H](C[C@H]4[C@@H]5CC[C@H]6C[C@@H](N)CC[C@]6(C)[C@H]5CC[C@]34C)O[C@@]2(O)C1`, the TGI is reported as 41.9 µM.
Molecule `CSc1ccccc1C#C/C=C\C#Cc1ccccc1N` has a GI50 of 5.08 µM and a TGI of over 100 µM.
`O=C1c2cc3c(cc2-c2c1c1cc(Cl)c(Cl)cc1c(=O)n2C[C@H](O)CO)OCO3` gave a GI50 of under 0.01 µM and a TGI of over 100 µM.
With `COc1ccc(/C(=C\C=C(C#N)C#N)Sc2nc3ccccc3s2)cc1` the GI50 was 1.58 µM and the TGI was over 50 µM.
Work on `CC(C)(C)[Si](C)(C)OC1C(=O)C[C@H]2CCCC[C@@H]12` (stereo not given in full) yielded a TGI of over 100 µM.
Work on `CCN(CC)CCSc1c2ccccc2nc2c(OC)ccc(OC)c12` yielded a TGI of over 24.5 µM.
`CCOC(=O)c1ccc(N=Nc2cc(C(=O)OCC)ccc2O)cc1` gave a TGI of over 100 µM.
For `[N-]=[N+]=N/C1=C/CCCCC(=O)C1`, the TGI was over 100 µM.
Work on `CCc1c(Cl)c(C)cc(O)c1Cl` yielded a TGI of over 100 µM.
`C=COC(=O)N[C@H]1CCc2cc(OC)c(OC)c(OC)c2-c2ccc(SC)c(=O)cc21` gave a TGI of over 31.6 µM.
With `Cc1ccc(NC(=O)CCc2nnc(N)o2)cc1` the TGI was over 100 µM.
With `S=c1[nH]c2c(Cl)c(Cl)c(Cl)c(Cl)c2[nH]1` the TGI was 38.4 µM.
In the case of `Cc1cc(N(CCCNc2ccnc3cc(Cl)ccc23)Cc2ccc3c(c2)OCO3)nc(N2CCOCC2)n1`, the GI50 is reported as 0.328 µM and the TGI is reported as 10 µM.
Work on `CCOC(=O)C1SC(=Nc2ccccc2)N=C1C` (stereo not given) yielded a TGI of over 100 µM.
`O=C1CCC(=O)c2c1c(O)c1ccncc1c2O` showed a TGI of 44 µM.
Work on `C=CCN1CCC23c4c5ccc(O)c4OC2C(=NN=C2CCC4(O)C6Cc7ccc(O)c8c7C4(CCN6CC=C)C2O8)CCC3(O)C1C5` (stereo not given) yielded a TGI of 78.7 µM.
`CN(C)CCNC(=O)c1cccc2c(Nc3ccc(S(=O)(=O)N=C(N)N)cc3)c3ccccc3nc12` was tested, and the TGI was 77.4 µM.
In the case of `COC(=O)C1=C(C(=O)OC)C2=S(SC3=C2CCCC3)S1` (stereo not given), the TGI is reported as 25.8 µM.
With `O=C(Nc1ccc(Cl)c(C(F)(F)F)c1)c1ccc(NC2=C(Cl)C(=O)N(Cc3ccccc3)C2=O)cc1` the GI50 was 3.49 µM and the TGI was 7.24 µM.
With `COC(=O)c1ccc(-c2c(C#N)[n+](=O)c3cc(Cl)c(Cl)cc3n2[O-])cc1` the GI50 was 5.54 µM and the TGI was 21.8 µM.
Molecule `CC1(C)CC(=O)CC(=Nc2ccc([N+](=O)[O-])cc2)C1` has a TGI of over 100 µM.
`C/C(=N\NC(=S)N1CCCCCC1)c1ccccn1` was tested, and the TGI was 1.92 µM and 4.53 µM.
For `Oc1ccc2ccccc2c1N=Nc1ccc(Br)cc1`, the TGI was over 100 µM.
For `CC(C)=CCc1cc2c(cc1O)OC[C@H]1c3cc4c(cc3O[C@@H]21)OCO4`, the TGI was over 100 µM.
`Cn1cc(-c2csc(-c3c[nH]c4ccc(Br)cc34)n2)c2cnccc21` showed a GI50 of 0.345 µM and a TGI of 1.28 µM.
